As usually defined, the Kd is the equilibrium constant for the complex coming apart.

Structures are written as SMILES. The source made the active and inactive calls. The calls are words filed in the database; no cut-off is given here.

Activity, Drug uptake and Kd data for five compounds are collected here from ChEMBL document CHEMBL1800035, “An optimized immunoaffinity fluorescent method for natural product target elucidation” (J Nat Prod, 2010).

For series [1], the target named is T1, Protein kinase C eta type (Homo sapiens, UniProt P24723). Put plainly: Binding affinity to PKCeta in human HeLa cell lysates at 10 nM to 100 uM after 2 hrs by immunoprecipitation analysis.
T1 sequence (P24723 whole entry): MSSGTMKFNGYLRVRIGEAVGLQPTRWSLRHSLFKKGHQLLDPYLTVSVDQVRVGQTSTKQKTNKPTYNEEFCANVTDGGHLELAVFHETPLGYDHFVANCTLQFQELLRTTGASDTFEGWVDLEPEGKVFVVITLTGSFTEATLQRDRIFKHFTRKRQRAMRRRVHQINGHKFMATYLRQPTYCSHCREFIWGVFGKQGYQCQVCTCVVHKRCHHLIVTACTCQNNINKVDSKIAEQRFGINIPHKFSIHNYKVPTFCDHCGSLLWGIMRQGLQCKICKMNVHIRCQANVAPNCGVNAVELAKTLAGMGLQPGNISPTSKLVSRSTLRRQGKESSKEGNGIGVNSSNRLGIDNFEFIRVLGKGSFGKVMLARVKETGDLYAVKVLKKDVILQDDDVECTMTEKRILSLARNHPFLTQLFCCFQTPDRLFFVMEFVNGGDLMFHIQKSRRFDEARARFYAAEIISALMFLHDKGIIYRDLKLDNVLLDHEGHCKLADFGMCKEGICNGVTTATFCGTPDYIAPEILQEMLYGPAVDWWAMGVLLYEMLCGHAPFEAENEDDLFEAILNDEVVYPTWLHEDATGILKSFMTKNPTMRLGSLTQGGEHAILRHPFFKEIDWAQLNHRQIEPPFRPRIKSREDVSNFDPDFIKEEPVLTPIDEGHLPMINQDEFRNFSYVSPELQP
Series [2] deals with HeLa. Put plainly: Drug uptake in human HeLa cells assessed as subcellular localization in endoplasmic reticulum at 25 uM after 6 hrs by live cell microscopic analysis. The series is classed as ADME, cell-based.
Series [3] addresses T1, Protein kinase C eta type. Put plainly: Binding affinity to recombinant human PKCeta in after 2 hrs by microequilibrium dialysis assay. In general terms: Equilibrium dialysis compares concentrations on both sides of a semipermeable membrane.
Series [4] deals with HeLa. Put plainly: Drug uptake in human HeLa cells assessed as subcellular localization in endoplasmic reticulum at 10 uM after 6 hrs using blue-fluorescent IAF-tagged streptavidin staining by live cell microscopic analysis. It is filed as ADME, cell-based.
The subject of series [5] is HeLa. Put plainly: Drug uptake in human HeLa cells assessed as subcellular localization in endoplasmic reticulum at 10 uM after 6 hrs using blue-fluorescent IAF-tagged streptavidin staining by live cell microscopic analysis presence of glycyrrhetic acid. The series is classed as ADME, cell-based.
The nature of series [6]: Binding affinity to mouse IAF-labeled immunoglobulin G mAb by immunoaffinity fluorescent method.

Consider `CC1(C)[C@@H](O)CC[C@]2(C)[C@H]3C(=O)C=C4[C@@H]5C[C@@](C)(C(=O)NCCN=[N+]=[N-])CC[C@]5(C)CC[C@@]4(C)[C@]3(C)CC[C@@H]12`, for which the result in series [1] was inactive. Same read-out and setting: to `C#CCNC(=O)Cc1cc(=O)oc2cc(N(C)C)ccc12` belongs “inactive”.

Take `CC1(C)[C@@H](O)CC[C@]2(C)[C@H]3C(=O)C=C4[C@@H]5C[C@@](C)(C(=O)O)CC[C@]5(C)CC[C@@]4(C)[C@]3(C)CC[C@@H]12` [ENOXOLONE]: in the series with HeLa [2], the Drug uptake entry was “Active”. Moreover, the equilibrium dissociation constant (Kd) in series [3] turned out to be 0.25 µM. With `CN(C)c1ccc2c(CC(=O)NCCNC(=O)[C@@]3(C)CC[C@]4(C)CC[C@]5(C)C(=CC(=O)[C@@H]6[C@@]7(C)CC[C@H](O)C(C)(C)[C@@H]7CC[C@]65C)[C@@H]4C3)cc(=O)oc2c1`, the Drug uptake result is recorded as “Active” in the series with HeLa [4] and “Not Active” in the series with HeLa [5]. Besides, the Kd was determined as 0.64 µM in series [3] and 0.54 µM in series [6]. As for `CC1(C)[C@@H](O)CC[C@]2(C)[C@H]3C(=O)C=C4[C@@H]5C[C@@](C)(C(=O)NCCNC(=O)CCCC[C@@H]6SC[C@@H]7NC(=O)N[C@@H]76)CC[C@]5(C)CC[C@@]4(C)[C@]3(C)CC[C@@H]12`, the Drug uptake result with HeLa [4] is recorded as “Not Active”.
